Laboratory results: patent US7494784B2, “Method of treating cell-migration conditions or diseases” (Wisconsin Alumni Research Foundation, priority 2003, dated 2009)

Tests used:
[1] = target: T1, GST-talin head (Homo sapiens, UniProt Q9Y490); test: GST pull-down competition: displacement of His-β1-integrin tail from GST-talin head; type: binding; settings: for binding affinity for talin compared with unphosphorylated peptide PN: binding assay between talin and integrin (FIG. 2); for binding affinity to talin of phosphorylated β1-integrin peptides: competing integrin tail binding from talin
T1 construct: Human talin1 head region (1-435) was cloned from HEK293T cells by PCR and subcloned into pET42; made in house; host or cells: E. coli BL21(DE3)
Method: Talin interactions were assessed by GST pull-down using recombinant GST-talin head, His-PIPKIγ635 C-terminus, His-PIPKIγ661 wild-type or Tyr to Phe mutant C-terminus, and His-β1-integrin tail. […] Peptides containing the PIPKIγ661/talin binding sequence (Di Paolo, et al. (2002) supra) were designed to include phosphorylated Tyr^644, phosphorylated Tyr^649, and dual phosphorylated Tyr^644 and Tyr^649.
In a screening assay to identify an agent which modulates the activity of PIPKIγ661 as defined by the binding interaction between PIPKIγ661 and talin, the step of detecting the activity of PIPKIγ661 is carried out by detecting and measuring the binding of PIPKIγ661 to talin. The detection and measurement of this binding interaction will be dependent on the type of screening assay performed and the labels used. Such screening assays to detect binding between two proteins in the presence of a test agent are well-known in the art. […] An exemplary binding assay of this type was conducted using PIPKIγ661 peptides of the sequence Cys-Asp-Glu-Arg-Scr-[…](peptide designated PN; SEQ ID NO:12) which are encompassed within the C-terminal 25 amino acid residues of PIPKIγ661 and interact with talin at the same site as integrin. […] Fluorescent probes may be linked to the cysteine residue using conventional thiol or thiolester linkages. […] In this assay, an agent which is an inhibitor of the interaction between PIPKIγ661 and talin blocks binding of a peptide of SEQ ID NO:12 and changes the fluorescent emission anisotropy as compared to a control (e.g., binding in the absence of the inhibitor).
(§1) Purified GST-talin head proteins were incubated with PIPKIγ661 tails or β1-integrin tail, together with Glutathione SEPHAROSE™ 4 Fast Flow (Amersham Biosciences, Piscataway, N.J.), in Buffer B (PBS, 0.2% NP-40, 2 mM DTT) at 4° C. for 4 hours. The beads were washed three times with Buffer B and analyzed by western blot. For competition assays, GST-talin head proteins were incubated with peptides or competing proteins for 2 hours, then the binding proteins were added and the mixtures were incubated for another 4 hours.

[2] = target: GST-talin Arg^358->Gln (Homo sapiens, UniProt Q9Y490, R358Q); settings: peptide competing His-PIPKIγ661 binding
Source text: (§2) From structural studies of integrin binding to talin, a conserved tryptophan in β-integrin tail is positioned near two basic residues, Lys^357 and Arg^358 of talin F3 lobe (Garcia-Alvarez, et al. (2003) supra). […] The role of PIPKIγ661 phosphorylation was examined by using phosphorylated peptides to compete His-PIPKIγ661 binding to wild-type or mutant GST-talin. […] To further analyze this, β1-integrin peptides phosphorylated at Thr of Trp-Asp-Thr and at Tyr of Asn-Pro-Ile-Tyr (SEQ ID NO: 1) were synthesized and used to compete integrin tail binding from talin.
(§3) Human talin1 head region (1-435) was cloned from HEK293T cells by PCR and subcloned into pET42. The C-terminal truncated or site-directed mutagenesis for the PIPKIγ661 mutants or talin head was performed using PCR-primer overlap extension with mutagenic primers. PIPKIγ661 mutants were then subcloned into pcDNA3.1 and talin head mutants were subcloned into pET42. His-tagged mouse β1-integrin tail was made using well-established methods (Pfaff, et al. (1998) supra) and subcloned into pET28. The C-terminus of PIPKIγ635 (439-635), PIPKIγ661 (439-661), or the Tyr to Phe mutants of PIPKIγ661 were PCR amplified from the corresponding pcDNA3.1 constructs and subcloned into pET28. […] FAK, FAKTyr397Phe, kinase dead FAK and c-Src constructs were generated using well-known methods.
as §1

[3] = target: GST-talin Lys^357->Gln (Homo sapiens, UniProt Q9Y490, K357Q); settings: peptide competing His-PIPKIγ661 binding
Source text: as §2, §3, §1

[4] = test system: Src family kinases; test: Tyrosine phosphorylation of PIPKIγ661 in cells with Src-specific inhibitor; type: cell-based
Source text: In the FAK signaling pathway, Src family tyrosine kinases bind to and are activated by FAK, playing a fundamental role in focal adhesion organization (Parsons, et al. (2000) Oncogene 19:5606-5613; Cobb, et al (1994) Mol. Cell. Biol. 14:147-155; Schaller, et al. (1994) Mol. Cell. Biol. 14:1680-1688; Schaller, et al. (999) Mol. Cell. Biol. 10:3489-3505). To determine if Src family kinases phosphorylate PIPKIγ661, Src-specific inhibitor PP2 was employed. […] PIPKIγTyr^649->Phe is efficiently phosphorylated by c-Src.
HEK 293T cells and NRK cells were cultured in Dulbecco's modified Eagle's medium (DMEM) (Mediatech, Inc., Herndon, Va.) supplemented with 10% fetal bovine serum (INVITROGEN™, Carlsbad, Calif.) and antibiotics. NRK cells were transfected using FUGENE™ 6 (Roche, Indianapolis, Ind.) according to manufacturer's instructions for 24 hours. […]
Immunoprecipitation was performed using standard methods (Zhang, et al. (1997) J. Biol. Chem. 272:17756-17761). […] The immunocomplexes were washed with Buffer A, separated by SDS-polyacrylamide gel electrophoresis (SDS-PAGE), and analyzed as indicated. […]

[5] = test system: HEK293T cells; test: Co-immunoprecipitation of talin with PIPKIγ661 from suspended HEK293T cells after stimulation; type: cell-based; settings: stimulated
Method: The association between PIPKIγ661 and talin was also regulated by adhesion to type I collagen. […] However, in suspended cells, the PIPKIγ661 association with talin was restored when cells were stimulated with lysophosphatidic acid (LPA) or platelet-derived growth factor (PDGF).
Immunoprecipitation was performed using standard methods (Zhang, et al. (1997) J. Biol. Chem. 272:17756-17761). Briefly, transfected HEK293T cells were harvested and lysed in Buffer A (50 mM Tris-HCl, pH 7.5, 150 mM NaCl, 0.1-1.0% NP-40, 5.0 mM NaF, 2 mM Na3VO4, 4 mM Na2P2O7, 1 mM EDTA, 0.1 mM EGTA, 1 mM phenylmethyl sulphonyl fluoride (PMSF), 10% glycerol), centrifuged and incubated with protein A—Sepharose and 5 μg anti-HA, anti-c-Myc, anti-Flag, anti-PIPKIγ or anti-talin antibody as indicated at 4° C. for 4 hours to overnight. The immunocomplexes were washed with Buffer A, separated by SDS-polyacrylamide gel electrophoresis (SDS-PAGE), and analyzed as indicated. For the kinase assay, the immunocomplexes were washed and stored in kinase buffer.
Transfected HEK 293T cells were washed with phosphate-buffer saline (PBS) and detached with 0.25% trypsin at 37° C. The cells were harvested and washed with PBS, and suspended in serum-free DMEM at 37° C. for 1 hour. […]

T1 sequence (Q9Y490 1-435): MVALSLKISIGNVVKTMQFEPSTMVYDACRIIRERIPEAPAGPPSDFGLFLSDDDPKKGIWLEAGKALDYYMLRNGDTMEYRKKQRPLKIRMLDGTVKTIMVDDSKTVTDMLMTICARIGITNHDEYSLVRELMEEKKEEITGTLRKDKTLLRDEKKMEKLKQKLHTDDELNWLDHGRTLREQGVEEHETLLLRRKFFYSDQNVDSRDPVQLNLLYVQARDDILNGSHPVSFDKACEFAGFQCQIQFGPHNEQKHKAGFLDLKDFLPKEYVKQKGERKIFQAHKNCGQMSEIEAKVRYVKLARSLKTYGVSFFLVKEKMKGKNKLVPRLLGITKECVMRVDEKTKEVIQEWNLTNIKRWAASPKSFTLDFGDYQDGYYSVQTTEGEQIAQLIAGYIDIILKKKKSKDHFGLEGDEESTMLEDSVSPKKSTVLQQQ
GST-talin Lys^357->Gln, sequence (Q9Y490 1-435 K357Q): as the sequence (Q9Y490 1-435) above, with K357Q counted along it
GST-talin Arg^358->Gln, sequence (Q9Y490 1-435 R358Q): as the sequence (Q9Y490 1-435) above, with R358Q counted along it

For “Cys-Asp-Glu-Arg-Ser-Trp-Val-*Tyr-Ser-Pro-Leu-His-*Tyr-Ser-Ala-Arg [pY644/649]”, the “binding affinity for talin compared with unphosphorylated peptide PN” value [1] was “higher binding affinity”.

With “Cys-Asp-Glu-Arg-Ser-Trp-Val-Tyr-Ser-Pro-leu-His-Tyr-Ser-Ala-Arg [PN]” the “displacement of His-β1-integrin from GST-talin” value ([1]; in vitro) was “poorly displaced”.

“Cys-Asp-Glu-Arg-Ser-Trp-Val-Tyr-Ser-Pro-Leu-His-*Tyr-Ser-Ala-Arg [pY649]” was tested, and the “binding affinity for talin compared with unphosphorylated peptide PN” value [1] was “higher binding affinity”, the “affinity of binding to talin mutant Arg^358->Gln” value [2] was “loss of affinity” and the “affinity of binding to talin mutant Lys^357->Gln” value [3] was “lower affinity”.

With “Cys-Met-Asn-Ala-Lys-Trp-Asp-*T-Gly-Glu-Asn-Pro-Ile-Tyr-Lys-Ser-Ala [β1InpT]” the “binding affinity to talin of phosphorylated β1-integrin peptides” value [1] was “did not increase binding affinity”.

“Cys-As-Glu-Arg-Ser-Trp-Val-*Tyr-Ser-Pro-Leu-His-Tyr-Ser-Ala-Arg [pY644]” was tested, and the “binding affinity for talin compared with unphosphorylated peptide PN” value [1] was “higher binding affinity”, the “affinity of binding to talin mutant Arg^358->Gln” value [2] was “loss of affinity” and the “affinity of binding to talin mutant Lys^357->Gln” value [3] was “retained high affinity binding”.

In the case of `CC(C)(C)n1nc(-c2ccc(Cl)cc2)c2c(N)ncnc21` [PP2], the “FAK-induced tyrosine phosphorylation of PIPKIγ661” value ([4]; FAK-induced) is reported as “dramatically inhibited” and the “basal tyrosine phosphorylation of PIPKIγ661” value ([4]; basal) is reported as “dramatically inhibited”.

In the case of “lysophosphatidic acid [LPA, reference compound]”, the “PIPKIγ661 association with talin” value [5] is reported as “restored”.

In the case of “Cys-Met-Asn-Ala-Lys-Tp-Asp-Thr-Gly-Glu-Asn-Pro-Ile-*Tyr-Lys-Ser-Ala [β1 InpY]”, the “binding affinity to talin of phosphorylated β1-integrin peptides” value [1] is reported as “lower binding affinity”.

For PDGF, the “PIPKIγ661 association with talin” value [5] was “restored”.

B1: His-PIPKIγ661: recombinant His-tagged PIPKIγ661 wild-type C-terminus (439-661) (protein)
chain: MSSTVFRKSSSLKSSPSKKGRGALLAVKPLGPTAAFSASQIPSEREDVQYDLRGARSYPTLEDEGRPDLLPCTPPSFEEATTASIATTLSSTSLSIPERSPSDTSEQPRYRRRTQSSGQDGRPQEEPHAEDLQKITVQVEPVCGVGVVPKEEGAGVEVPPCGASAAASVEIDAASQASEPASQASDEEDAPSTDIYFPTDERSWVYSPLHYSARPASDGESDT
modifications: left off: small tags and cut ends
B1 was tested, and the “competition with His-β1-integrin for binding to GST-talin” value ([1]; recombinant C-terminus proteins) was “competed with His-β1-integrin for binding to GST-talin in a dose-dependent manner”.
